According to ChEMBL document CHEMBL5154845, “Dual-acting antitumor agents targeting the A2A adenosine receptor and histone deacetylases: Design and synthesis of 4-(furan-2-yl)-1H-pyrazolo[3,4-d]pyrimidin-6-amine derivatives” (Eur J Med Chem, 2022):

How the values were obtained:
[1] = Mean residence time in male ICR mouse at 20 mg/kg, po measured up to 24 hrs by LC-MS/MS analysis; format: ADME, organism-based; conditions: in vivo
[2] = AUC (0 to t) in male ICR mouse at 20 mg/kg, po measured up to 24 hrs by LC-MS/MS analysis; format: ADME, organism-based; design: time < 24 hrs, dose 20 mg/kg, route po; conditions: in vivo
[3] = target: T1, Protein deacetylase HDAC6 (Homo sapiens, UniProt Q9UBN7); test: Inhibition of HDAC6 (unknown origin) using trypsin and LGK(Ac)-AMC as substrates incubated for 1 hr and measured by fluorescence assay
T1 sequence (Q9UBN7 whole entry): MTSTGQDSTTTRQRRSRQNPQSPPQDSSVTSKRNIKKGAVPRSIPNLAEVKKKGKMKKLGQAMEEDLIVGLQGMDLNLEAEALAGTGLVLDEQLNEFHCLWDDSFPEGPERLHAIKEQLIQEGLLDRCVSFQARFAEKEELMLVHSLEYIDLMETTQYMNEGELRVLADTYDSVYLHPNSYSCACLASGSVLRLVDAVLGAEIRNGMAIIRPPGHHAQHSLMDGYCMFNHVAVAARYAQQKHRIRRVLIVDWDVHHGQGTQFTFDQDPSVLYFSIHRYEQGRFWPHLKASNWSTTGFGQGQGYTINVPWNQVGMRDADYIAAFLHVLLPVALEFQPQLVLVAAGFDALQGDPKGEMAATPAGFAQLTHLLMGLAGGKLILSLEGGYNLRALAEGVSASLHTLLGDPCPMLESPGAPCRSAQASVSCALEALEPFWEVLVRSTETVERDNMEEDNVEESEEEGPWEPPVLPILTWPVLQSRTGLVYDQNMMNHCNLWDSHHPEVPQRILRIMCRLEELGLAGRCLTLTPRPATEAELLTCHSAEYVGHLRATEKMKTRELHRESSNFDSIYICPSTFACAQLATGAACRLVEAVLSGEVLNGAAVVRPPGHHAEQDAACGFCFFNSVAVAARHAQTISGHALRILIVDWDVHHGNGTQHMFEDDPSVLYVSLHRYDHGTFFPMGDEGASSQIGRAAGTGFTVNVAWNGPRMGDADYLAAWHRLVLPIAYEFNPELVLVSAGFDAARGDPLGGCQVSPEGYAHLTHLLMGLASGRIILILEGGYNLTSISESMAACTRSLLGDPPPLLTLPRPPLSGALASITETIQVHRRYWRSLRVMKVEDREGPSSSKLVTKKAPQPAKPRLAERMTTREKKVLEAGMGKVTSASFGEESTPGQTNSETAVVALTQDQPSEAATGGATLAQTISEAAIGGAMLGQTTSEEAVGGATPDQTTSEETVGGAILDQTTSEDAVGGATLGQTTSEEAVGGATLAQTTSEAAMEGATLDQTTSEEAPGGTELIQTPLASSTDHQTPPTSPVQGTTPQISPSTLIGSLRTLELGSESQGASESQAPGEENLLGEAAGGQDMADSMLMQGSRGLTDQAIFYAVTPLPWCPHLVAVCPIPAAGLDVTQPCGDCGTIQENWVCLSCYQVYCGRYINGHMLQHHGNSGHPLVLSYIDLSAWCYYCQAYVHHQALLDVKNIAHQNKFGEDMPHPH

[4] = Half-life in male ICR mouse at 20 mg/kg, po measured up to 24 hrs by LC-MS/MS analysis; format: ADME, organism-based; conditions: in vivo
[5] = Cmax in male ICR mouse at 20 mg/kg, ip measured up to 24 hrs by LC-MS/MS analysis; format: ADME, organism-based; design: time < 24 hrs, dose 20 mg/kg, route ip; conditions: in vivo
[6] = Half-life in male ICR mouse at 20 mg/kg, ip measured up to 24 hrs by LC-MS/MS analysis; format: ADME, organism-based; conditions: in vivo
[7] = Tmax in male ICR mouse at 20 mg/kg, ip measured up to 24 hrs by LC-MS/MS analysis; format: ADME, organism-based; conditions: in vivo
[8] = Cmax in male ICR mouse at 20 mg/kg, po measured up to 24 hrs by LC-MS/MS analysis; format: ADME, organism-based; design: time < 24 hrs, dose 20 mg/kg, route po; conditions: in vivo
[9] = target: T2, Adenosine receptor A1 (Homo sapiens, UniProt P30542); test: Displacement of [3H]DPCPX from human A1AR incubated for 60 mins by scintillation counter analysis
T2 sequence (P30542 whole entry): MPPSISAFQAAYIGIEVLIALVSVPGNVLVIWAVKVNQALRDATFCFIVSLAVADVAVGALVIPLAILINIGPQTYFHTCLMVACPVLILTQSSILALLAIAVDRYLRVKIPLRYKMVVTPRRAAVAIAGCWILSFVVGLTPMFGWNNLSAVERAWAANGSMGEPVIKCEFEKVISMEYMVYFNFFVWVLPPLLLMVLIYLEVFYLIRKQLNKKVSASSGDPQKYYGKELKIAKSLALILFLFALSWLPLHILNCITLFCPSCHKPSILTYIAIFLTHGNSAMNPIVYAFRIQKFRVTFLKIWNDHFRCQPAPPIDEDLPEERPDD

[10] = system: MC-38; test: Antitumor activity against mouse MC38 cells xenografted in C57 mouse assessed as tumor growth inhibition at 90 mg/kg, po administered twice a day; format: functional; conditions: read-out: TGI

MRT [1]: 1.29 h
AUC(0-t) at 24 h [2]: 3600 ng·h/mL
IC50 [3]: > 10000 nM
half-life [4]: 2.24 h
Cmax [5]: 8410 ng/mL
half-life [6]: 0.83 h
Tmax [7]: 0.25 h
Cmax [8]: 3420 ng/mL
Ki [9]: 503 nM
SMILES: Nc1nc(-c2ccco2)c2cnn(CCc3ccc(C(=O)Nc4ccccc4N)cc3)c2n1
inhibition in vivo at 90 mg/kg [10]: 44%
